Measurements as given in patent publication US20060069132A1, “Azolecarboxamide herbicides” (priority 2004, published 2006).

Key:
pigweed = test: Test B pre-/postemergence herbicide test; type: in vivo, Amaranthus retroflexus; conditions: for Pigweed plant response rating: postemergence, visual rating, scale 0 (no effect) to 100 (complete control)
Outline: (§1)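 Flooded paddy rice and barnyardgrass were treated at the 2-leaf stage; upland plantings received compound either on sown seed or on 1- to 4-leaf seedlings. All were kept 13–15 days in a greenhouse and scored visually, 0–100, relative to untreated plants.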

redroot pigweed = test: Test A pre-/postemergence herbicide test; type: in vivo, Amaranthus retroflexus
Outline: (§2)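 Greenhouse injury scoring (0–100, complete control = 100) at approximately ten days follows simultaneous pre- and postemergence application. Soil received a directed spray after seeding; seedlings of 2–10 cm at the one- to two-leaf stage were sprayed to runoff.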

ducksalad = test: Test B flooded paddy test; type: in vivo, Heteranthera limosa; conditions: 1000 g ai/ha, visual rating, scale 0 to 100 (0 no effect, 100 complete control), 13 to 15 days
Outline: (§3)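 Greenhouse test; postemergence application to plants at 1–4 leaves (2–18 cm); paddy species at 2 leaves; evaluated visually vs controls at 13–15 days; scale 0–100 (100 = complete control).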

wheat = test: Test B postemergence herbicide test; type: in vivo, Triticum aestivum; design: key to Wheat plant response rating: 0 = no effect, 100 = complete control; conditions: postemergence, visual rating, scale 0 (no effect) to 100 (complete control)
Outline: (§4)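 Postemergence plants were sprayed with formulated test chemicals at 2 to 18 cm height (1- to 4-leaf stage); paddy species were grown to the 2-leaf stage. After 13 to 15 days in a greenhouse, injury was rated visually against untreated controls on a 0–100 scale (0 = no effect, 100 = complete control).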

barnyardgrass [1] = test: Test B flooded paddy test; type: in vivo, Echinochloa crus-galli; conditions: 1000 g ai/ha, visual rating, scale 0 to 100 (0 no effect, 100 complete control), 13 to 15 days
Outline: as §3

velvetleaf [2] = test: Test B pre-/postemergence herbicide test; type: in vivo, Abutilon theophrasti; conditions: for Velvetleaf plant response rating: postemergence, visual rating, scale 0 (no effect) to 100 (complete control)
Outline: as §1

blackgrass = test: Test B postemergence herbicide test; type: in vivo, Alopecurus myosuroides; conditions: postemergence, visual rating, scale 0 (no effect) to 100 (complete control)
Outline: as §3

rice [3] = test: Test B pre-/postemergence herbicide test; type: in vivo, Oryza sativa; conditions: preemergence
Outline: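 Evaluation is visual, comparing treated with control plants on a scale where 0 means no effect and 100 means full control. Treatments were preemergence, or postemergence on seedlings 2–18 cm tall, and held 13–15 days in the greenhouse.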

corn = test: Test B pre-/postemergence herbicide test; type: in vivo, Zea mays; conditions: for Corn plant response rating: postemergence, visual rating, scale 0 (no effect) to 100 (complete control)
Outline: as §1

rice [4] = test: Test B flooded paddy test; type: in vivo, Oryza sativa; conditions: 1000 g ai/ha, visual rating, scale 0 to 100 (0 no effect, 100 complete control), 13 to 15 days
Outline: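 After treating 2-leaf paddy plants or 2–18 cm postemergence plants (1 to 4 leaves) with formulated chemical, researchers kept them in a greenhouse for 13–15 days. Effects were judged visually versus controls: 0 indicates none, 100 total control.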

large crabgrass [5] = test: Test A pre-/postemergence herbicide test; type: in vivo, Digitaria sanguinalis
Outline: as §2

barnyardgrass [6] = test: Test A pre-/postemergence herbicide test; type: in vivo, Echinochloa crus-galli
Outline: as §2

wild oat = test: Test B postemergence herbicide test; type: in vivo, Avena fatua; conditions: postemergence, visual rating, scale 0 (no effect) to 100 (complete control)
Outline: as §4

morningglory [7] = test: Test B pre-/postemergence herbicide test; type: in vivo, Ipomoea coccinea; conditions: for Morningglory plant response rating: postemergence, visual rating, scale 0 (no effect) to 100 (complete control)
Outline: (§5)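 Greenhouse pot assay with simultaneous preemergence (treated seed) and postemergence (2–18 cm seedlings) applications of surfactant-containing, non-phytotoxic solvent formulations. Response scored visually 13–15 days later on a 0–100 scale, 100 meaning complete control.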

Surinam grass = test: Test B pre-/postemergence herbicide test; type: in vivo, Urochloa decumbens; conditions: for Surinam Grass plant response rating: postemergence, visual rating, scale 0 (no effect) to 100 (complete control)
Outline: as §1

[8] = system: small flower umbrella sedge; test: Test B flooded paddy test; type: in vivo, Cyperus difformis; conditions: 1000 g ai/ha, visual rating, scale 0 to 100 (0 no effect, 100 complete control), 13 to 15 days
Outline: as §3

giant foxtail [9] = test: Test A pre-/postemergence herbicide test; type: in vivo, Setaria faberi
Outline: as §2

large crabgrass [10] = test: Test B pre-/postemergence herbicide test; type: in vivo, Digitaria sanguinalis; conditions: for Crabgrass, Large plant response rating: postemergence, visual rating, scale 0 (no effect) to 100 (complete control)
Outline: as §1

barnyardgrass [11] = test: Test B pre-/postemergence herbicide test; type: in vivo, Echinochloa crus-galli; conditions: for Barnyardgrass plant response rating: postemergence, visual rating, scale 0 (no effect) to 100 (complete control)
Outline: as §5

morningglory [12] = test: Test A pre-/postemergence herbicide test; type: in vivo, Ipomoea spp.
Outline: as §2

lambsquarters = test: Test B pre-/postemergence herbicide test; type: in vivo, Chenopodium album; conditions: for Lambsquarters plant response rating: postemergence, visual rating, scale 0 (no effect) to 100 (complete control)
Outline: as §1

giant foxtail [13] = test: Test B pre-/postemergence herbicide test; type: in vivo, Setaria faberi; conditions: for Foxtail, Giant plant response rating: postemergence, visual rating, scale 0 (no effect) to 100 (complete control)
Outline: as §1

velvetleaf [14] = test: Test A pre-/postemergence herbicide test; type: in vivo, Abutilon theophrasti
Outline: as §2

cocklebur = test: Test B pre-/postemergence herbicide test; type: in vivo, Xanthium strumarium; conditions: for Cocklebur plant response rating: postemergence, visual rating, scale 0 (no effect) to 100 (complete control)
Outline: as §5

[15] = 125 g ai/ha, 0 = no effect, 100 = complete control, preemergence
[16] = 500 g ai/ha, visual rating 0-100, 0 no effect, 100 complete control, preemergence
[17] = Postemergence, 500 g ai/ha, 0 to 100 scale, 0 no effect, 100 complete control
[18] = Postemergence, 2000 g ai/ha, 0 to 100 scale, 0 no effect, 100 complete control
[19] = Preemergence, 2000 g ai/ha, visual rating, 0 to 100 scale (0 no effect, 100 complete control)
[20] = preemergence, 500 g ai/ha, visual injury, 0 to 100 scale (0 no effect, 100 complete control)

SMILES: Cc1nc(C(C)(C)C)sc1C(=O)Nc1cccc(C(=O)NCCF)c1 [Compound 200]
- Pigweed plant response rating (0 to 100 scale) (pigweed; [15]): 10
- Plant response rating, Pigweed (pigweed; [16]): 90
- Pigweed plant response rating (pigweed; 125 g ai/ha): 10
- Pigweed plant response rating (pigweed; 500 g ai/ha): 40
- Pigweed plant response rating (redroot pigweed; [17]): 50
- Plant response rating, Pigweed (redroot pigweed; [18]): 60
- Pigweed plant response rating (redroot pigweed; [19]): 95
- Pigweed plant response rating (redroot pigweed; [20]): 80
- Ducksalad plant response rating (ducksalad): 0
- Wheat plant response rating (wheat; 125 g ai/ha): 0
- Wheat plant response rating (wheat; 500 g ai/ha): 0
- Barnyardgrass plant response rating (barnyardgrass [1]): 0
- Velvetleaf plant response rating (0 to 100 scale) (velvetleaf [2]; [15]): 0
- Plant response rating, Velvetleaf (velvetleaf [2]; [16]): 20
- Velvetleaf plant response rating (velvetleaf [2]; 125 g ai/ha): 10
- Velvetleaf plant response rating (velvetleaf [2]; 500 g ai/ha): 30
- Blackgrass plant response rating (blackgrass; 125 g ai/ha): 0
- Blackgrass plant response rating (blackgrass; 500 g ai/ha): 10
- Rice plant response rating (0 to 100 scale) (rice [3]; 125 g ai/ha, 0 = no effect, 100 = complete control): 0
- Plant response rating, Rice (rice [3]; 500 g ai/ha, visual rating 0-100, 0 no effect, 100 complete control): 10
- Corn plant response rating (0 to 100 scale) (corn; [15]): 0
- Plant response rating, Corn (corn; [16]): 0
- Corn plant response rating (corn; 125 g ai/ha): 10
- Corn plant response rating (corn; 500 g ai/ha): 30
- Rice plant response rating (rice [4]): 0
- Crabgrass, Large plant response rating (large crabgrass [5]; [17]): 10
- Plant response rating, Crabgrass, Large (large crabgrass [5]; [18]): 25
- Crabgrass, Large plant response rating (large crabgrass [5]; [19]): 75
- Crabgrass, Large plant response rating (large crabgrass [5]; [20]): 70
- Barnyardgrass plant response rating (barnyardgrass [6]; [17]): 10
- Plant response rating, Barnyardgrass (barnyardgrass [6]; [18]): 35
- Barnyardgrass plant response rating (barnyardgrass [6]; [19]): 45
- Barnyardgrass plant response rating (barnyardgrass [6]; [20]): 35
- Oat, Wild plant response rating (wild oat; 125 g ai/ha): 0
- Oat, Wild plant response rating (wild oat; 500 g ai/ha): 10
- Morningglory plant response rating (0 to 100 scale) (morningglory [7]; [15]): 0
- Plant response rating, Morningglory (morningglory [7]; [16]): 10
- Morningglory plant response rating (morningglory [7]; 125 g ai/ha): 0
- Morningglory plant response rating (morningglory [7]; 500 g ai/ha): 40
- Surinam Grass plant response rating (0 to 100 scale) (Surinam grass; [15]): 0
- Plant response rating, Surinam Grass (Surinam grass; [16]): 10
- Surinam Grass plant response rating (Surinam grass; 125 g ai/ha): 10
- Surinam Grass plant response rating (Surinam grass; 500 g ai/ha): 20
- Sedge, Umbrella plant response rating [8]: 50
- Foxtail, Giant plant response rating (giant foxtail [9]; [17]): 0
- Plant response rating, Foxtail, Giant (giant foxtail [9]; [18]): 20
- Foxtail, Giant plant response rating (giant foxtail [9]; [19]): 60
- Foxtail, Giant plant response rating (giant foxtail [9]; [20]): 35
- Crabgrass, Large plant response rating (0 to 100 scale) (large crabgrass [10]; [15]): 50
- Plant response rating, Crabgrass, Large (large crabgrass [10]; [16]): 90
- Crabgrass, Large plant response rating (large crabgrass [10]; 125 g ai/ha): 0
- Crabgrass, Large plant response rating (large crabgrass [10]; 500 g ai/ha): 10
- Barnyardgrass plant response rating (0 to 100 scale) (barnyardgrass [11]; [15]): 0
- Plant response rating, Barnyardgrass (barnyardgrass [11]; [16]): 20
- Barnyardgrass plant response rating (barnyardgrass [11]; 125 g ai/ha): 0
- Barnyardgrass plant response rating (barnyardgrass [11]; 500 g ai/ha): 10
- Morningglory plant response rating (morningglory [12]; [17]): 35
- Plant response rating, Morningglory (morningglory [12]; [18]): 45
- Morningglory plant response rating (morningglory [12]; [19]): 60
- Morningglory plant response rating (morningglory [12]; [20]): 15
- Lambsquarters plant response rating (0 to 100 scale) (lambsquarters; [15]): 20
- Plant response rating, Lambsquarters (lambsquarters; [16]): 80
- Lambsquarters plant response rating (lambsquarters; 125 g ai/ha): 60
- Lambsquarters plant response rating (lambsquarters; 500 g ai/ha): 60
- Foxtail, Giant plant response rating (0 to 100 scale) (giant foxtail [13]; [15]): 0
- Plant response rating, Foxtail, Giant (giant foxtail [13]; [16]): 10
- Foxtail, Giant plant response rating (giant foxtail [13]; 125 g ai/ha): 10
- Foxtail, Giant plant response rating (giant foxtail [13]; 500 g ai/ha): 10
- Velvetleaf plant response rating (velvetleaf [14]; [17]): 10
- Plant response rating, Velvetleaf (velvetleaf [14]; [18]): 10
- Velvetleaf plant response rating (velvetleaf [14]; [19]): 35
- Velvetleaf plant response rating (velvetleaf [14]; [20]): 20
- Cocklebur plant response rating (0 to 100 scale) (cocklebur; [15]): 0
- Plant response rating, Cocklebur (cocklebur; [16]): 0
- Cocklebur plant response rating (cocklebur; 125 g ai/ha): 10
- Cocklebur plant response rating (cocklebur; 500 g ai/ha): 20
